Measured values as given in patent US20260184675A1, “CHIRAL ISOMERIC SULFITE COMPOUND AND APPLICATION THEREOF” (Chengdu Hanova BioSciences Co., Ltd, priority 2024, published 2026).

How the values were obtained:
Assay type in all cases: in vivo
[1] = test system: eggs of Thrips; experiment: Effect on hatching of eggs of Thrips, leaf disc method; settings: 100 ppm; for Hatching rate (%): 5 days after insecticide delivery
Method: (§1) • (1) Preparation of leaf discs containing eggs: 20 female adult mites of Tetranychus cinnabarinus were transferred onto leaf discs of Vicia faba with a diameter of 2.0 cm (with wetted filter paper at the bottom), then covered it with a lidded culture dish and cultivated under moisturizing conditions, the adult mites were removed within 36 hours and microscopic examination and counting were performed on leaf discs containing eggs. • (2) Investigation of egg population base: Before pesticide soaking, a microscopic examination was conducted on the egg basic number of each leaf disc, with 2 replicates set for each treatment. • (3) Pesticide soaking treatment: The leaf butterflies loaded with mite eggs were soaked in clear water and sulfite compounds for 10 seconds, respectively, then taken out and cultivated under moisturizing conditions. Each treatment should be repeated for no less than 3 times. • (4) Cultivation and observation: The […] were cultivated under normal conditions. Five days after insecticide delivery, the hatching status of mite eggs was investigated. • Note: The temperature and humidity conditions of the constant temperature and humidity incubator after the treatment should be controlled so as to avoid excessive temperature differences, which may cause generation and dripping of condensate water in the culture dish, resulting in abnormal death of eggs due to soaking in water; it is also necessary to ensure sufficient strong ambient light, without directing irradiating the leaves. • (5) Survey of Results: The experimental materials of each treatment group were regularly hydrated and moisturized, and the hatching of eggs was observed. On the 7th day after insecticide delivery, the number of hatched eggs for each treatment was recorded, and the survey of results was recorded in the original notebook. According to the experimental requirements and characteristics of agents, the survey time can be shortened or extended.
(§2) • 1) Surveying and recording the number of hatched eggs for each treatment. • 2) Photographing and recording whether there was any pesticide damage to the leaf discs of Vicia faba. • 3) Recording the developmental status of experimental mite eggs, behavior status of nymph mites, including abnormal phenomena such as delayed or stopped development of mite eggs, difficulty in breaking hull for nymph mites, or painful struggles after hatching, etc. • (6) Calculation method: Based on the survey data, the prevention and control effect of each treatment was calculated according to the following formula, and the calculation results were kept to two decimal places.
(§3) This test adopted the method in Test Example 1 of technical section, mainly used leaf disc method to explore the inhibitory effect on hatching of eggs of Thrips by 1-(S,S), 1-(S,R), 1-(R,R), 1-(R,S), 1′-(S,S), 1′-(S,R), 1′-(R,R), 1′-(R,S), compound 1, compound 1′, S-10, R-10, S-10′, R-10′, compound 10, compound 10′, compound 19-(S,S), 19-(S,R), 19-(R,R), 19-(R,S), 19′-(S,S), 19′-(S,R), 19′-(R,R), 19′-(R,S), compound 19, and compound 19′. The concentration of all compounds was 100 ppm.

[2] = test system: eggs of Aleyrodidae; experiment: Effect on hatching of eggs of Aleyrodidae, leaf disc method; settings: 10 ppm; for Hatching rate (%), Replicate 1 / Hatching rate (%), Replicate 2 / Hatching rate (%), Replicate 3 / Number of hatched larvae 5 days after insecticide delivery, Replicate 1 / Number of hatched larvae 5 days after insecticide delivery, Replicate 2 / Number of hatched larvae 5 days after insecticide delivery, Replicate 3: Aleyrodidae eggs; for Hatching rate (%), Replicate 1 / Hatching rate (%), Replicate 2 / Hatching rate (%), Replicate 3: 5 days after delivery; for Number of hatched larvae 5 days after insecticide delivery, Replicate 1 / Number of hatched larvae 5 days after insecticide delivery, Replicate 2 / Number of hatched larvae 5 days after insecticide delivery, Replicate 3: leaf disc
Method: as §1, §2
as §3, with “Aleyrodidae” for “Thrips”, “by compounds” for “by”, “10” for “100”

[3] = test system: eggs of Tetranychus urticae; experiment: Effect on hatching of eggs of Tetranychus urticae, leaf disc method; settings: 5 ppm; for Hatching rate (%): 5 days after insecticide delivery
Method: as §1, §2
as §3, with “Tetranychus urticae” for “Thrips”, “by compounds” for “by”, “5” for “100”

[4] = test system: eggs of Spodoptera litura; experiment: Effect on hatching of eggs of Spodoptera litura, egg piece soaking; settings: Spodoptera litura eggs, 500 ppm; for Hatching rate (%), Replicate 1 / Hatching rate (%), Replicate 2 / Hatching rate (%), Replicate 3: 4 days after delivery; for Number of unhatched larvae 4 days after insecticide delivery, Replicate 1 / Number of unhatched larvae 4 days after insecticide delivery, Replicate 2 / Number of unhatched larvae 4 days after insecticide delivery, Replicate 3: soaked 10 minutes
Method: • (1) Preparation of paper containing eggs: the egg mass was cut into small pieces, each containing about 60 eggs, soaked in a preformulated test agent for 10 minutes together with paper for egg raising (concentration of each compound of 500 ppm). After taken out, absorbent paper was used to absorb the excess solution adhered to the paper for egg raising and egg pieces. (2) Cultivation: Each egg piece was separately placed in a glass test tube (5.0 cm in height, 2.5 cm in diameter, the same below), which was sealed with plastic paper punctured with fine holes using insect needles and cultivated in an artificial climate chamber at a temperature of (24±1° C.), a relative humidity of (80±10) %, and a photoperiod of L:D=12:12. When the eggs developed until they were about to hatch, castor leaves with a diameter of about 3 cm were added for feeding the hatching larvae; • (3) Observation: the number of hatched and unhatched eggs per egg piece was checked and recorded, and the hatching rate of eggs was calculated according to the formula. Each treatment was repeated for 3 times. • (4) Survey of results: The experimental materials of each treatment group were regularly hydrated and moisturized, and the hatching of eggs was observed. On the 4th day after insecticide delivery, the number of hatched eggs for each treatment was recorded, and the survey of results was recorded in the original notebook. According to the experimental requirements and characteristics of agents, the survey time can be shortened or extended. • 1) Surveying and recording the number of hatched eggs for each treatment. • 2) Recording the developmental status of experimental eggs of Spodoptera litura, behavior status of nymphs, including abnormal phenomena such as delayed or stopped development of eggs of Spodoptera litura, etc. • (5) Calculation method: Based on the survey data, the prevention and control effect of each treatment was calculated according to the following formula, and the calculation results were kept to two decimal places. [formula] [formula]

[5] = Replicate 1, listed as 1′-(R, R)
[6] = Replicate 2, listed as 1′-(R, R)
[7] = Replicate 3, listed as 1′-(R, R)

CC(COc1ccc(Cl)cc1Cl)OS(=O)OCCF [1′-(R,R)]
Hatching rate (%) [1, 5]: 12.68% | Hatching rate (%) [1, 6]: 12.79% | Hatching rate (%) [1, 7]: 14.29% | Number of hatched larvae 5 days after insecticide delivery [1, 5]: 18 | Number of hatched larvae 5 days after insecticide delivery [1, 6]: 11 | Number of hatched larvae 5 days after insecticide delivery [1, 7]: 15 | Hatching rate (%), Replicate 1 ([2]; listed as 1′-(R, R)): 13.95% | Hatching rate (%), Replicate 2 ([2]; listed as 1′-(R, R)): 15.38% | Hatching rate (%), Replicate 3 ([2]; listed as 1′-(R, R)): 13.21% | Number of hatched larvae 5 days after insecticide delivery, Replicate 1 ([2]; listed as 1′-(R, R)): 18 | Number of hatched larvae 5 days after insecticide delivery, Replicate 2 ([2]; listed as 1′-(R, R)): 14 | Number of hatched larvae 5 days after insecticide delivery, Replicate 3 ([2]; listed as 1′-(R, R)): 14 | Hatching rate (%) [3, 5]: 17.91% | Hatching rate (%) [3, 6]: 19.28% | Number of hatched larvae 5 days after insecticide delivery [3, 5]: 12 | Number of hatched larvae 5 days after insecticide delivery [3, 6]: 16 | Hatching rate (%), Replicate 1 ([4]; listed as 1′-(R, R)): 61.82% | Hatching rate (%), Replicate 2 ([4]; listed as 1′-(R, R)): 64.29% | Hatching rate (%), Replicate 3 ([4]; listed as 1′-(R, R)): 62.71% | Number of unhatched larvae 4 days after insecticide delivery, Replicate 1 ([4]; listed as 1′-(R, R)): 21 | Number of unhatched larvae 4 days after insecticide delivery, Replicate 2 ([4]; listed as 1′-(R, R)): 20 | Number of unhatched larvae 4 days after insecticide delivery, Replicate 3 ([4]; listed as 1′-(R, R)): 22

CC(COc1ccc(Cl)cc1Cl)OS(=O)OCCF (stereo not drawn) [Compound 1′]
inhibitory activity on the hatching of eggs of Thrips (in words) [1]: strong inhibitory activities | Hatching rate (%) ([1]; Replicate 1): 0.00% | Hatching rate (%) ([1]; Replicate 2): 0.00% | Hatching rate (%) ([1]; Replicate 3): 0.97% | Number of hatched larvae 5 days after insecticide delivery ([1]; Replicate 1): 0 | Number of hatched larvae 5 days after insecticide delivery ([1]; Replicate 2): 0 | Number of hatched larvae 5 days after insecticide delivery ([1]; Replicate 3): 1 | inhibitory activity on the hatching of eggs of Aleyrodidae (in words) [2]: strong inhibitory activities | Hatching rate (%), Replicate 1 [2]: 1.87% | Hatching rate (%), Replicate 2 [2]: 0.00% | Hatching rate (%), Replicate 3 [2]: 1.14% | Number of hatched larvae 5 days after insecticide delivery, Replicate 1 [2]: 2 | Number of hatched larvae 5 days after insecticide delivery, Replicate 2 [2]: 0 | Number of hatched larvae 5 days after insecticide delivery, Replicate 3 [2]: 1 | inhibitory activity on the hatching of eggs of Tetranychus urticae (in words) [3]: strong inhibitory activities | Hatching rate (%) ([3]; Replicate 1): 0.00% | Hatching rate (%) ([3]; Replicate 2): 1.98% | Number of hatched larvae 5 days after insecticide delivery ([3]; Replicate 1): 0 | Number of hatched larvae 5 days after insecticide delivery ([3]; Replicate 2): 2 | Hatching rate (%), Replicate 1 [4]: 40.68% | Hatching rate (%), Replicate 2 [4]: 40.32% | Hatching rate (%), Replicate 3 [4]: 39.06% | Number of unhatched larvae 4 days after insecticide delivery, Replicate 1 [4]: 35 | Number of unhatched larvae 4 days after insecticide delivery, Replicate 2 [4]: 37 | Number of unhatched larvae 4 days after insecticide delivery, Replicate 3 [4]: 39

CC(C)(COc1ccc(Cl)cc1Cl)OS(=O)OCCF (stereo not drawn) [Compound 10]
inhibitory activity on the hatching of eggs of Thrips (in words) [1]: strong inhibitory activities | Hatching rate (%) ([1]; Replicate 1): 0.99% | Hatching rate (%) ([1]; Replicate 2): 0.00% | Hatching rate (%) ([1]; Replicate 3): 0.00% | Number of hatched larvae 5 days after insecticide delivery ([1]; Replicate 1): 1 | Number of hatched larvae 5 days after insecticide delivery ([1]; Replicate 2): 0 | Number of hatched larvae 5 days after insecticide delivery ([1]; Replicate 3): 0 | inhibitory activity on the hatching of eggs of Aleyrodidae (in words) [2]: strong inhibitory activities | Hatching rate (%), Replicate 1 [2]: 0.76% | Hatching rate (%), Replicate 2 [2]: 0.00% | Hatching rate (%), Replicate 3 [2]: 1.61% | Number of hatched larvae 5 days after insecticide delivery, Replicate 1 [2]: 1 | Number of hatched larvae 5 days after insecticide delivery, Replicate 2 [2]: 0 | Number of hatched larvae 5 days after insecticide delivery, Replicate 3 [2]: 2 | inhibitory activity on the hatching of eggs of Tetranychus urticae (in words) [3]: strong inhibitory activities | Hatching rate (%) ([3]; Replicate 1): 1.94% | Hatching rate (%) ([3]; Replicate 2): 1.35% | Number of hatched larvae 5 days after insecticide delivery ([3]; Replicate 1): 2 | Number of hatched larvae 5 days after insecticide delivery ([3]; Replicate 2): 1 | Hatching rate (%), Replicate 1 [4]: 41.27% | Hatching rate (%), Replicate 2 [4]: 40.98% | Hatching rate (%), Replicate 3 [4]: 42.11% | Number of unhatched larvae 4 days after insecticide delivery, Replicate 1 [4]: 37 | Number of unhatched larvae 4 days after insecticide delivery, Replicate 2 [4]: 36 | Number of unhatched larvae 4 days after insecticide delivery, Replicate 3 [4]: 33
